Reference: patent US11319296B2, “DP antagonist” (ONO PHARMACEUTICAL CO., LTD., priority 2018, dated 2022)

Experiments:
Human DP receptor = target: T1, Human DP receptor (Homo sapiens, UniProt Q13258); assay: Measurement of DP receptor antagonistic activity using human DP receptor expressing cells (cAMP-HTRF); type: cell-based; details: inhibition of cAMP production increased by 10 nmol/L prostaglandin D2
T1 construct: expressed in transfected cells
T1 sequence (Q13258 1-359): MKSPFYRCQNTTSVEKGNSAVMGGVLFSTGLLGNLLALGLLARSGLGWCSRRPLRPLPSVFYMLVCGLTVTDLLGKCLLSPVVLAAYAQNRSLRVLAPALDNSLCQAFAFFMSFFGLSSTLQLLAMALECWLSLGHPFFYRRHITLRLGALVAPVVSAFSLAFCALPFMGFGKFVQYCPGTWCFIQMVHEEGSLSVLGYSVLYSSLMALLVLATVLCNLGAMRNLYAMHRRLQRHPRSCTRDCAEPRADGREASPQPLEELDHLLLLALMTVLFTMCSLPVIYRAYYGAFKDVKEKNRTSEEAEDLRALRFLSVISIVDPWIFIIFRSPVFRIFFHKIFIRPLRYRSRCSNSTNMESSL
Method: Biological Example 1: Measurement of DP Receptor Antagonistic Activity Using Human DP Receptor Expressing Cells
cAMP-HTRF kit (SCETI MEDICAL LABO K.K., 62AM6PEJ) was used to measure DP receptor antagonistic activity. To a 384 well plate was added 10 μL/well of the compound of the present invention prepared at various concentrations and prostaglandin D2 (final concentration 10 nmol/L). Human DP receptor-expressing cells were suspended in phosphate buffer containing 2 μmoL/L diclofenac and 1 mmol/L IBMX (3-isobutyl-1-methylxantine) and seeded to 5000 cells/10 μL/well. After cell seeding, the cells were incubated at room temperature for 1 hour. Thereafter, anti-cAMP Cryptate conjugate and a cAMP-d2 solution were added according to a method of the measurement kit, and the mixture was incubated at room temperature for 1 hour, then the cAMP concentration in the sample was quantified.
Intensity of DP receptor antagonistic action by the compound of the present invention was represented by IC50 value (concentration of the compound of the present invention required to inhibit 50% of cAMP production in the absence of the compound of the present invention) calculated from an inhibition ratio to the cAMP production increased by 10 nmol/L prostaglandin D2 stimulation.

[1] = Measurement of concentration of compound in cerebrospinal fluid (CSF) after oral administration; type: in vivo; details: rat, 3 mg/kg, male Wistar rats, oral 3 mg/5 mL/kg, five test substances mixed, CSF collected 3 hours after administration
Method: Pharmacokinetic Test 1: Measurement of Concentration of Compound of Present Invention in Cerebrospinal Fluid (Hereinbelow, CSF)
Five test substances were mixed, and a test substance solution was prepared so that the dose of each test substance was 3 mg/5 mL/kg. The medium used was 5% DMSO 20% kolliphor HS15/propylene glycol (7:3). The test substance solution was orally administered to male 8- to 10-week-old Wistar rats purchased from Charles River Japan. Three hours after administration, the rats were anesthetized and CSF was collected by cisternal puncture. The same amount of ethanol (wako) as CSF was taken with a syringe used for collection, and the compound adsorbed on the syringe was recovered by washing.
Candesartan (TRC) was used as an internal standard substance, 40 μL of acetonitrile and 160 μL of Candesartan-containing acetonitrile/ethanol (7:3) were added to 10 μL of the obtained CSF sample, and the mixture was stirred. To prepare a calibration curve, 40 μL of the compound solution and 160 μL of Candesartan-containing acetonitrile/ethanol (7:3) were added to 10 μL of plasma, and the mixture was stirred. The entire amount of each solution was transferred to a deproteinization filter plate and suction filtered. The obtained filtrate was appropriately diluted with acetonitrile/water (1:1) and used for measurement. In the measurement, standard samples for calibration curve were prepared in the same matrix and analyzed in the same manner. The measurement was performed under the following conditions.
Liquid Chromatography System: Prominence UFLCXR (Shimadzu Corporation),
Column: Shim-pack XR-ODSII 2.0 mm ID×75 mm (Shimadzu Corporation),
Column temperature: 40° C.,
Mobile phase: A: 0.2% formic acid 5 mmol/L ammonium acetate aqueous solution, B: acetonitrile,
Mass spectrometry system: API4000, API5000 (AB SCIEX)
A regression equation was calculated from the peak area ratio (peak area of the test substance/peak area of the internal standard substance) obtained by measuring the standard samples for calibration curve using analysis software Analyst ver. 1.5.2 (AB SCIEX). The peak area ratio was also obtained for a measurement sample and substituted into the regression equation to calculate a quantitative value. In calculation of mean value and standard deviation, points below the lower limit of quantification were calculated as 0.

normal rat = assay: Effect of prolonging normal rat awakening time (electroencephalogram/electromyogram); type: in vivo; details: rats, single oral dose of 3 mg/kg
Method: Biological Example 2: Effect of Prolonging Normal Rat Awakening Time
Chronic electrodes were placed in the brain and cervical muscles of rats to prepare rats in which electroencephalogram and electromyogram can be measured. After a recovery period of one week or more, the rat and a biological signal amplifier were connected in a shield box that blocked sound and electrical noise. After acclimatization in a measurement cage for 1 hour or more, various doses of the compound of the present invention were orally administered to rats in a single dose, and electroencephalogram and electromyogram were recorded 6 hours after the oral administration. After the measurement was completed, the rats were returned to a breeding cage each time, and a vehicle and each compound were evaluated with a washout period of one week or more.
The recorded electroencephalogram and electromyogram were analyzed using SleepSign Ver. 3 and divided into epochs every 10 seconds, and the stage was determined for any of awakening, non-REM sleep or REM sleep, with reference to characteristics of the electroencephalogram and electromyogram and spectral analysis results of each frequency component of the brain wave. […]

| IC50 (Human DP receptor) [nM] | concentration at 3 h [1] [ng/mL] | Structure (SMILES) | awakening time-prolonging effect (difference in total awakening time of 6 hours after administration vs vehicle-administered group) (normal rat) [min] |
| --- | --- | --- | --- |
| 16 | 45 | Cc1cc(C#CCC2CCCCC2)cc(C)c1C(=O)Nc1cc(CC(=O)O)ccc1Cl [Example 7, {4-Chloro-3-[4-(3-cyclohexylprop-1-yn-1-yl)-2,6-dimethylbenzamide]phenyl}acetic Acid] |  |
|  | 55 | O=C(O)Cc1ccc(Cl)c(NC(=S)c2ccc(OCCC3CCCCO3)cc2C(F)(F)F)c1 (stereo not drawn) [Example 10-2, [4-Chloro-3-({4-[2-(oxan-2-yl)ethoxy]-2-(trifluoromethyl)benzene-1-carbothioyl}amino)phenyl]acetic Acid] |  |
| 5.1 | 34 | O=C(O)Cc1ccc(Cl)c(NC(=S)c2ccc(OCCc3ccccc3)cc2C(F)(F)F)c1 [Example 10-4, (4-Chloro-3-{[4-(2-phenylethoxy)-2-(trifluoromethyl)benzene-1-carbothioyl]amino}phenyl)acetic Acid] |  |
| 9.6 | 43 | Cc1cc(OCCC2CCCCO2)cc(C)c1C(=S)Nc1cc(CC(=O)O)ccc1Cl (stereo not drawn) [Example 10, [4-Chloro-3-({2,6-dimethyl-4-[2-(oxan-2-yl)ethoxy]benzene-1-carbothioyl}amino)phenyl]acetic Acid] |  |
| 3.7 | 28 | Cc1cc(/C=C/CC2CCCCC2)cc(C)c1C(=O)Nc1cc(CC(=O)O)ccc1Cl [Example 8, (4-Chloro-3-{4-[(1E)-3-cyclohexylprop-1-en-1-yl]-2,6-dimethylbenzamide}phenyl)acetic Acid] | 48 |
| 11 | 29 | Cc1cc(OCCC2CCCCC2)cc(C)c1C(=O)Nc1cc(CC(=O)O)ccc1Cl [Example 4-1, {4-Chloro-3-[4-(2-cyclohexylethoxy)-2,6-dimethylbenzamide]phenyl}acetic Acid] |  |
| 10 |  | Cc1cc(OC2Cc3ccccc3C2)cc(C)c1C(=O)Nc1cc(CC(=O)O)ccc1F [Example 5, (3-{4-[(2,3-Dihydro-1H-inden-2-yl)oxy]-2,6-dimethylbenzamide}-4-fluorophenyl)acetic Acid] |  |
| 7.8 | 66 | Cc1cc(OCCC2CCCCO2)cc(C)c1C(=S)Nc1cc(C(C)C(=O)O)ccc1Cl (stereo in doubt) [Example 21, 2-(4-Chloro-3-{[(2,6-dimethyl-4-{2-[(2R)-tetrahydro-2H-pyran-2-yl]ethoxy}phenyl)carbothioyl]amino}phenyl)propanoic Acid] |  |
| 4.8 | 48 | Cc1cc(OCC[C@H]2CCCCO2)cc(C)c1C(=S)Nc1cc(CC(=O)O)ccc1Cl [Example 12, {4-Chloro-3-[(2,6-dimethyl-4-{2-[(2R)-oxan-2-yl]ethoxy}benzene-1-carbothioyl]amino}phenyl}acetic Acid] | 60 |
| 1.7 | 36 | Cc1cc(OCCC2CCCCC2)cc(C)c1C(=S)Nc1cc(CC(=O)O)ccc1Cl [Example 10-1, (4-Chloro-3-{[4-(2-cyclohexylethoxy)-2,6-dimethylbenzene-1-carbothioyl]amino}phenyl)acetic Acid] |  |
| 35 | 52 | Cc1cc(OCCC2CCCCO2)cc(C)c1C(=S)Nc1cc(C(C)(C)C(=O)O)ccc1F (stereo not drawn) [Example 20, 2-{3-[({2,6-Dimethyl-4-[2-(tetrahydro-2H-pyran-2-yl)ethoxy]phenyl}carbothioyl)amino]-4-fluorophenyl}-2-methylpropanoic Acid] |  |
| 58 |  | Cc1cc(OCCC2CCCCO2)cc(C)c1C(=O)Nc1cc(CC(=O)O)ccc1Cl (stereo not drawn) [Example 4, (4-Chloro-3-{2,6-dimethyl-4-[2-(oxan-2-yl)ethoxy]benzamide}phenyl)acetic Acid] |  |
| 34 |  | O=C(O)Cc1ccc(Cl)c(NC(=O)c2ccc(OCCC3CCCCC3)cc2C(F)(F)F)c1 [Example 2-1, {4-Chloro-3-[4-(2-cyclohexylethoxy)-2-(trifluoromethyl)benzamide]phenyl}acetic Acid] |  |
